This passage reports Activity, EC50 and fold change (FC) results from ChEMBL document CHEMBL5528007, “Synthetic GPR40/FFAR1 agonists: An exhaustive survey on the most recent chemical classes and their structure-activity relationships” (Eur J Med Chem, 2024).

Each structure is given as a SMILES string.

Test [1] has as its target T1, Free fatty acid receptor 1 (Homo sapiens, UniProt O14842). Description: Agonist activity at human recombinant GPR40 expressed in CHO cells by Fluo4-AM dye based intracellular calcium flux assay relative to control. Type of test: functional, cell-based.
In a further test the target is GPR40-Galpha16 (Homo sapiens, UniProt O14842+P30679). Description: Agonist activity at human GPR40/Galpha-16 expressed in HEK293 cells by Fluo4-AM dye based intracellular calcium flux assay. Background: Calcium flux is commonly read through the fluorescence of an indicator in the cells.
GPR40-Galpha16, sequence (O14842 whole entry): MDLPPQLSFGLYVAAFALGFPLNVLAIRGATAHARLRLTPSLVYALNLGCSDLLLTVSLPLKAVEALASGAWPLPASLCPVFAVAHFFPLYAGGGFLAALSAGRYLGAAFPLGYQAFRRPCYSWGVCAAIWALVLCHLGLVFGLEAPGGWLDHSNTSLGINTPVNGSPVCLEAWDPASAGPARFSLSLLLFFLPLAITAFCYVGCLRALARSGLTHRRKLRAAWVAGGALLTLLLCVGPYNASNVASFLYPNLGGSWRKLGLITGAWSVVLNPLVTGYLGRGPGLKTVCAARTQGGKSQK
GPR40-Galpha16, sequence (P30679 whole entry): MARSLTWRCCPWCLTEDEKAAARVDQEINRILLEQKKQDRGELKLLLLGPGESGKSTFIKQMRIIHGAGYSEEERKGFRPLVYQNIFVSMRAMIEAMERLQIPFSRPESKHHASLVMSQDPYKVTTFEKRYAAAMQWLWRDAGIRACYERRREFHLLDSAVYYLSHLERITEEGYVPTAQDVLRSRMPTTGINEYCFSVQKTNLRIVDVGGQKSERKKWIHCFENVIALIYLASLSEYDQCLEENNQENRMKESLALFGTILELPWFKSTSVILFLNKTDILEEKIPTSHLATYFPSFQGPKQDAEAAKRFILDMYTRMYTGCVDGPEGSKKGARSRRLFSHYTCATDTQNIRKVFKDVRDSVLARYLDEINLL
Test [2] has as its target T2, Peroxisome proliferator-activated receptor gamma (Homo sapiens) (UniProt P37231).
T2 sequence (whole entry): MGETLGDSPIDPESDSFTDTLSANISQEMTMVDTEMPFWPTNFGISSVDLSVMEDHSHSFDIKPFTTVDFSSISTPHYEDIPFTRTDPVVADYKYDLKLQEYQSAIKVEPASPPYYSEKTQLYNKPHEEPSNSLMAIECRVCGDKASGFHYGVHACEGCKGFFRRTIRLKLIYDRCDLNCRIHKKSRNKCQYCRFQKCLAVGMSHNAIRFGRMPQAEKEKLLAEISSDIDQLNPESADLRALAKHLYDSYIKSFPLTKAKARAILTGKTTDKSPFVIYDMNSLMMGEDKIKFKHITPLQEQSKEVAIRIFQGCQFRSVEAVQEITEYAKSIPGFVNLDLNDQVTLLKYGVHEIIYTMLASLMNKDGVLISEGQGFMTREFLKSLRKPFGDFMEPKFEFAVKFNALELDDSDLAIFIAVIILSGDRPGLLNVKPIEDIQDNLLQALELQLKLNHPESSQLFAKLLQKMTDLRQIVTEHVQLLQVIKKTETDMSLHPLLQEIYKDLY
The test is described as follows: Agonist activity at PPARgamma (unknown origin) assessed as fold increase in calcium by Fluo4-AM dye based intracellular calcium flux assay. Type of test: cell-based. The settings on record: filed as agonist.

Test [3] concerns the target T1, Free fatty acid receptor 1. The test is described as follows: Agonist activity at human recombinant GPR40 stably expressed in HEK293 cells at 0.1 uM incubated for 24 hrs by FLIPR assay relative to control. It is filed as functional, cell-based.
In test [4] the target is T1, Free fatty acid receptor 1. Description: Agonist activity at human FFA1 stably expressed in CHO cells at 300 nM by Fluo4-AM dye based intracellular calcium flux FLIPR assay relative to control. Type of test: functional, cell-based.
Test [5] deals with T1, Free fatty acid receptor 1. The test is described as follows: Agonist activity at human GPR40 stably expressed in CHO cells assessed as increase in intracellular calcium concentration by FLIPR assay. Type of test: functional, cell-based.
Test [6] addresses T1, Free fatty acid receptor 1. The test is described as follows: Agonist activity at human […] expressed in HEK293 cells incubated for 40 mins by Fluo4-AM dye based intracellular calcium flux assay. It is filed as functional, cell-based.
The target of test [7] is T1, Free fatty acid receptor 1. Description: Agonist activity at human FFA1 expressed in CHO cells by Fluo4-AM dye based intracellular calcium flux assay. Type of test: functional, cell-based.
The target in test [8] is T1, Free fatty acid receptor 1. The test is described as follows: Agonist activity at human recombinant FFA1 stably expressed in CHO cells assessed as increase in calcium flux by Fluo4-AM dye based FLIPR assay. Type of test: functional, cell-based.
Test [9] concerns the target T1, Free fatty acid receptor 1. Description: Agonist activity at human GPR40 expressed in HEK293 cells by Fluo4-AM dye based intracellular calcium flux assay. Type of test: functional, cell-based.

T1 sequence (O14842 whole entry): as the sequence (O14842 whole entry) above

Take `O=C(O)C[C@@H](c1ccc(O[C@@H]2CCc3c2ccc(C(F)(F)F)c3CN2CCCCCC2)cc1)c1ccon1`: in test [1] (filed as agonist), the Activity is 48.2%.

The term EC50 denotes the concentration giving half of the maximal effect. Regarding `O=C(O)CCc1ccc(NCc2cccc(Oc3ccccc3)c2)cc1` [GW9508], the EC50 on GPR40-Galpha16 is 48 nM.

Take `COc1ccc2[nH]c(SCC(=O)Nc3ccc(OCC(=O)O)cc3)nc2c1`: the fold change (FC) in test [2] amounted to 2.

With `Cc1ccc(O[C@H]2CCOC2)cc1-c1cccc2c1CC[C@H]2Oc1ccc(OCC(=O)O)cc1`, the Activity in [3] (filed as agonist) was determined as 51.7%.

Consider `Cc1ccc(S(=O)(=O)Nc2cccc(COc3ccc4c(c3)OCC4CC(=O)O)c2)cc1` (configuration not stated), for which the Activity in [4] is 23.7%.

Consider `Cc1cccc(C(=O)Nc2ccc(CC(=O)O)cc2)c1`, for which, in test [5], the EC50 was found to be 13200 nM.

As to `Cc1cc(O[C@H]2CCOC2)cc(C)c1-c1cccc2c1CC[C@H]2Oc1ccc(OCC(=O)O)cc1`, in test [3] (filed as agonist), the Activity was found to be 47%.

With `O=C(O)CC1COc2cc(OCc3cccc(NC(=O)c4coc5ccccc45)c3)ccc21` (configuration not stated), in [4] (filed as agonist), the Activity stood at 50.4%.

For the compound `O=C(O)CCc1ccc(OCc2ccc3ccccc3n2)cc1`, the EC50 in test [6] stood at 100000 nM.

Turning to `CC1CCN(Cc2c(C(F)(F)F)ccc3c2CC[C@H]3Oc2ccc([C@H](CC(=O)O)c3ccon3)cc2)CC1`, the Activity in test [1] (filed as agonist) is 55.1%.

As to `[2H]C([2H])(Cc1ccc(OCc2cccc(-c3c(C)cc(OCCCS(C)(=O)=O)cc3C)c2)cc1)C(=O)O`, in [7], the EC50 stood at 72.2 nM.

As to `Cc1ccc(O[C@H]2CCOC2)cc1-c1cc(COc2ccc(OCC(=O)O)cc2)cc2c1CCC2`, in [3] (filed as agonist), the Activity stood at 133%.

As to `[2H]C([2H])(Cc1ccc(OCc2cccc(-c3c(C)cccc3C)c2)cc1)C(=O)O`, the 50% effective concentration (EC50) in test [7] was 42.7 nM.

For the compound `Cc1ccccc1-c1cccc(COc2ccc(OCC(=O)O)c(F)c2)c1`, the EC50 in [8] came to 1390 nM.

With `O=C(O)COc1ccc(NC(=O)CSc2nc3ccccc3[nH]2)cc1`, the fold change (FC) in [2] amounted to 2.

`O=C(O)C[C@@H](c1ccc(O[C@@H]2CCc3c2ccc(C(F)(F)F)c3CN2CCC(F)CC2)cc1)c1ccon1`: the Activity in test [1] (filed as agonist) is 45.2%.

On to `O=C(O)CC1COc2cc(OCc3cccc(O/C=C/Oc4ccccc4)c3)ccc21` (configuration not stated), for which the Activity in test [4] (filed as agonist) came out at 52.7%.

With `[2H]C([2H])(Cc1ccc(OCc2cccc(-c3ccccc3C)c2)cc1)C(=O)O`, in test [7], the EC50 turned out to be 19.1 nM.

Consider `CC(C)(CCCCCCCCCCC(C)(C)CC(=O)O)CC(=O)O`, for which, in [9], the EC50 was found to be 1220 nM.

Consider `O=C(O)C[C@@H](c1ccc(O[C@@H]2CCc3c2ccc(C(F)(F)F)c3CN2CCCCC2)cc1)c1ccon1`, for which, in test [1], the Activity was found to be 16.5%.

Take `O=C(O)CC1COc2cc(OCc3cccc(OCc4ccccc4)c3)ccc21` (configuration not stated): the Activity in [4] came to 23.5%.

As for `Cc1ccc(O[C@H]2CCOC2)cc1-c1cc(COc2ccc(OCC(=O)O)cc2)cc2c1OCC2`, the Activity in test [3] came to 1.8%.
